The target in assay [1] is T1, PI3Kγ (p120γ) (Homo sapiens, UniProt P48736).
T1 construct: purchased Promega V1761
Nature of the assay: Inhibition of PI3K kinase activity (ADP Glo), PI3Kγ. The settings on record: read-out: biochemical potency (PI3Kγ IC50). As for the experimental part: Compounds were evaluated to determine the potency with which they inhibited the kinase activity of the Class I PI3K subunits p110α/p85α (Promega, Cat #V1721), p110β/p85α (Promega, Cat #V1751), p120γ (Promega, Cat #V1761) and p110δ/p85α (Promega, Cat #V1771). Activity was determined as a function of ADP (adenosine diphosphate) generated from ATP consumed during the phosphorylation of Phosphatidylinositol 4,5-bisphosphate (PIP2) (Promega, Cat #V1701) to yield Phosphatidylinositol (3,4,5)-trisphosphate (PIP3). ADP levels in the assay mixture at the end of the reaction were quantitated using ADP Glo (Promega, Cat #V9103) according to the manufacturer's recommended protocol.
Enzyme was prepared for each of the PI3K subunits in 100 mM HEPES, pH 7.4, 100 mM NaCl, 6 mM MgCl2 and 0.05% BSA. p110α/p85α was prepared at 2 nM (2×), p110β/p85α was prepared at 7 nM (2×), p120γ was prepared at 8 nM (2×) and p110δ/p85α was prepared at 2 nM (2×). Five microliters of 2× enzyme dilution of each PI3K subunit were added to a 384-well white Opti-plates pre-dispensed with compound and allowed to incubate for 1 h at rt. A substrate mix containing 0.1 mg/ml (2×) of PIP2 and 50 μM (2×) ATP (Promega, Cat #V915) was prepared in 25 mM HEPES and 0.5 mM EGTA. Reactions were initiated by addition of 5 μl of 2× substrate mix to each well of the plates containing various PI3K isoforms and allowed to proceed for 60 min at rt. Ten microliters of ADP Glo reagent 1 were added to the wells of each plate and allowed to incubate at rt for 45 min according to the manufacturer's directions. Following incubation, 20 μl of ADP Glo reagent 2 was added to each plate and allowed to incubate for an additional 45 min. Luminescent signal, generated by ADP Glo, was quantified by reading on a Perkin Elmer Envision multimode reader. Compound potencies (IC50's) were determined using a standard 4-parameter fit non-linear regression fit.
In general terms: In ADP-Glo the light output rises with the ADP produced.

Assay [2] deals with T2, PI3Kγ (Homo sapiens, UniProt P48736).
T2 construct: host or cells: THP-1
T2 sequence (P48736 whole entry): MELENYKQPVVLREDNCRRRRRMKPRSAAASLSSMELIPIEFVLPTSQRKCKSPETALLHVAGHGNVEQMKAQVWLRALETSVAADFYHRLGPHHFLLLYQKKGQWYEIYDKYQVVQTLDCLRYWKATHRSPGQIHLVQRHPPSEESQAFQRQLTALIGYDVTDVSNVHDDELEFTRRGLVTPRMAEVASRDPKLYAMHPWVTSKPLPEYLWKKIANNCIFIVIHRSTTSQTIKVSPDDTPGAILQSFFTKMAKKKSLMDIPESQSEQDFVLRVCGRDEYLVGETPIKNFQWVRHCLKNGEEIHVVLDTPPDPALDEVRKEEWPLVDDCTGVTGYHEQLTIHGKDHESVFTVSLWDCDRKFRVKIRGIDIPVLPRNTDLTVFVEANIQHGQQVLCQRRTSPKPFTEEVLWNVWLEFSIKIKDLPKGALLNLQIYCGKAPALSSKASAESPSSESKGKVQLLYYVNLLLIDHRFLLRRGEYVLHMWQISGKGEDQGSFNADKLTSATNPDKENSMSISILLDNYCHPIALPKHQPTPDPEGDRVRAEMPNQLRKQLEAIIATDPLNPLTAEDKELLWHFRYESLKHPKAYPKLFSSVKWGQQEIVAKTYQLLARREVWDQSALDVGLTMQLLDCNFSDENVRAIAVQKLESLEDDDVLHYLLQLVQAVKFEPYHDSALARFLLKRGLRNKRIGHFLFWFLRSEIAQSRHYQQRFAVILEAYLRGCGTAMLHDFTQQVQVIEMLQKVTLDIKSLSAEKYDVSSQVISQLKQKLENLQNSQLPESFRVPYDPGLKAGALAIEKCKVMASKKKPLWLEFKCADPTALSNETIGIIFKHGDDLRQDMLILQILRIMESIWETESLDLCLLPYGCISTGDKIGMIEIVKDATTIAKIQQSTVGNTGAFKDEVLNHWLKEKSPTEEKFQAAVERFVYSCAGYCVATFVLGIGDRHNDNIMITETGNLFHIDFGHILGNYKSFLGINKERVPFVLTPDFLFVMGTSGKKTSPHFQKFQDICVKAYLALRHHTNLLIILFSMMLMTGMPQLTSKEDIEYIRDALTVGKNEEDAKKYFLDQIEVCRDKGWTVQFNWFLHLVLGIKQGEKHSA
Nature of the assay: PI3Kγ cellular assay in THP-1 cells (AKT pS473 AlphaLISA). Type of assay: cell-based. As for the experimental part:
Twenty microliters of serum starved THP-1 cells were added to the compound plate in serum free DMEM at a density of 9×10^6 cells per ml. Final assay conditions comprised 1.8×10^5 THP-1 cells per well with test compounds in 2% DMSO across a concentration range from 4 nM to 30 μM. […] Briefly, 10 μL of 4× lysis buffer was added to cells after stimulation. Following 60 min incubation at rt, 10 μL of cell lysate was transferred to a fresh 384-well Opti-plate to which 5 μL of AlphaLisa acceptor beads and 5 μL of AlphaLisa donor beads had been added. […] PI3Kγ activity was evaluated as a correlate of endogenous AKT phosphorylation levels. Percentage maximum activity in each test well was calculated based on DMSO (100% activity) and positive control treated cell wells (0% activity). The potencies (IC50's) of test compounds were determined using a standard 4-parameter fit non-linear regression fit.
Background: Alpha assays give light when donor and acceptor beads are brought close together.

The mark [3] stands for this setting: Table 1, rhMCP-1 stimulated AKT pS473, read-out: cellular potency (PI3Kγ IC50).
[4] abbreviates: Table 2, rhMCP-1 stimulated AKT pS473, read-out: cellular potency (PI3Kγ IC50).

Structures are written as SMILES. Read-outs that look alike come from different tables or passages of the source.

A word on the IC50: it is the point on the concentration scale where inhibition reaches its midpoint.

T1 sequence (P48736 whole entry): as above

Regarding `CC[C@H](CO)NC(=O)c1c(N)nn2ccc(-c3cc4c(c(NS(C)(=O)=O)c3)C(=O)N([C@@H](C)C(F)(F)F)C4)nc12` [Example 119, 2-Amino-N-[(2R)-1-hydroxybutan-2-yl]-5-{7-methanesulfonamido-1-oxo-2-[(2S)-1,1,1-trifluoropropan-2-yl]-2,3-dihydro-1H-isoindol-5-yl}pyrazolo[1,5-a]pyrimidine-3-carboxamide], the IC50 is < 100 nM in assay [1] (Table 1, p120γ) and < 100 nM in assay [2] (setting [3]).

With `Cc1cc(-c2ccn3nc(N)c(C(=O)N[C@H]4C[C@@](C)(O)C4)c3n2)cc2c1C(=O)N([C@@H](C)C1CC1)C2` [Example 196], the half-inhibitory concentration (IC50) was < 100 nM in assay [1] (Table 2, p120γ) and 100 to 1000 nM in assay [2] (setting [4]).

Consider `CS(=O)(=O)Nc1cc(-c2ccn3nc(N)c(C(=O)NC4CC4)c3n2)cc2c1C(=O)N([C@H](C1CC1)C(F)(F)F)C2` [Example 129, 2-Amino-N-cyclopropyl-5-{2-[(1R)-1-cyclopropyl-2,2,2-trifluoroethyl]-7-methanesulfonamido-1-oxo-2,3-dihydro-1H-isoindol-5-yl}pyrazolo[1,5-a]pyrimidine-3-carboxamide], for which the half-inhibitory concentration (IC50) in assay [1] (Table 1, p120γ) was < 100 nM; in assay [2] (setting [3]) it was < 100 nM.

As to `CC[C@H](N1Cc2cc(-c3ccn4nc(N)c(C(=O)NC5COC5)c4n3)cc(NS(C)(=O)=O)c2C1=O)C(F)(F)F` [Example 123, 2-Amino-5-{7-methanesulfonamido-1-oxo-2-[(2S)-1,1,1-trifluorobutan-2-yl]-2,3-dihydro-1H-isoindol-5-yl}-N-(oxetan-3-yl)pyrazolo[1,5-a]pyrimidine-3-carboxamide], the IC50 in assay [1] (Table 1, p120γ) was < 100 nM; in assay [2] (setting [3]) it was < 100 nM.

As to `C[C@@H](C1CC1)N1Cc2cc(-c3ccn4nc(N)c(C(=O)N[C@H]5CCC[C@@H](O)C5)c4n3)cc(OC(F)(F)F)c2C1=O` [Example 29, 2-Amino-5-{2-[(1S)-1-cyclopropylethyl]-1-oxo-7-(trifluoromethoxy)-2,3-dihydro-1H-isoindol-5-yl}-N-[(1S,3R)-3-hydroxycyclohexyl]pyrazolo[1,5-a]pyrimidine-3-carboxamide], the IC50 is < 100 nM in assay [1] (Table 1, p120γ) and < 100 nM in assay [2] (setting [3]).

As for `C[C@@H](C1CC1)N1Cc2cc(-c3ccn4nc(N)c(C(=O)NCCC(C)(C)O)c4n3)cc(NS(C)(=O)=O)c2C1=O` [Example 95, 2-Amino-5-{2-[(1S)-1-cyclopropylethyl]-7-methanesulfonamido-1-oxo-2,3-dihydro-1H-isoindol-5-yl}-N-(3-hydroxy-3-methylbutyl)pyrazolo[1,5-a]pyrimidine-3-carboxamide], the 50% inhibitory concentration (IC50) was < 100 nM in assay [1] (Table 1, p120γ) and < 100 nM in assay [2] (setting [3]).

On to `Cc1cc(-c2ccn3nc(N)c(C(=O)N[C@H]4CC[C@@](C)(O)CC4)c3n2)cc2c1C(=O)N([C@@H](C)C1CC1)C2` [Example 2, 2-Amino-5-{2-[(1S)-1-cyclopropylethyl]-7-methyl-1-oxo-2,3-dihydro-1H-isoindol-5-yl}-N-[cis-4-hydroxy-4-methylcyclohexyl]pyrazolo[1,5-a]pyrimidine-3-carboxamide], for which the half-maximal inhibitory concentration (IC50) in assay [1] (Table 1, p120γ) is < 100 nM; in assay [2] (setting [3]), < 100 nM.

Turning to `C[C@@H](C1CC1)N1Cc2cc(-c3ccn4nc(N)c(C(=O)N[C@H]5CCC[C@@H](O)C5)c4n3)cc(C(F)(F)F)c2C1=O` [Example 63, 2-Amino-5-{2-[(1S)-1-cyclopropylethyl]-1-oxo-7-(trifluoromethyl)-2,3-dihydro-1H-isoindol-5-yl}-N-[(1S,3R)-3-hydroxycyclohexyl]pyrazolo[1,5-a]pyrimidine-3-carboxamide], the IC50 in assay [1] (Table 1, p120γ) was < 100 nM; in assay [2] (setting [3]), < 100 nM.

`C[C@@H](C1CC1)N1Cc2cc(-c3ccn4nc(N)c(C(=O)Nc5ccncc5)c4n3)cc(NS(C)(=O)=O)c2C1=O` [Example 100, (S)-2-Amino-5-(2-(1-cyclopropylethyl)-7-(methylsulfonamido)-1-oxoisoindolin-5-yl)-N-(pyridin-4-yl)pyrazolo[1,5-a]pyrimidine-3-carboxamide]: the IC50 in assay [1] (Table 1, p120γ) is < 100 nM; in assay [2] (setting [3]), < 100 nM.

Take `Cc1cc(-c2ccn3nc(N)c(C(=O)NCC4(CO)CC4)c3n2)cc2c1C(=O)N([C@@H](C)C1CC1)C2` [Example 250]: the IC50 in assay [1] (Table 2, p120γ) was < 100 nM; in assay [2] (setting [4]), 100 to 1000 nM.

For the compound `Cc1cc(-c2ccn3nc(N)c(C(=O)N[C@H]4CCNC4)c3n2)cc2c1C(=O)N([C@@H](C)C1CC1)C2` [Example 232], the IC50 was < 100 nM in assay [1] (Table 2, p120γ) and 100 to 1000 nM in assay [2] (setting [4]).

As for `Cc1cc(-c2ccn3nc(N)c(C(=O)N[C@H]4CCC[C@@H]4O)c3n2)cc2c1C(=O)N([C@@H](C)C1CC1)C2` [Example 210], the IC50 in assay [1] (Table 2, p120γ) is < 100 nM; in assay [2] (setting [4]), 100 to 1000 nM.

`CO[C@H]1C[C@H](NC(=O)c2c(N)nn3ccc(-c4cc(C)c5c(c4)CN([C@@H](C)C4CC4)C5=O)nc23)C1` [Example 182]: the IC50 is < 100 nM in assay [1] (Table 2, p120γ) and 100 to 1000 nM in assay [2] (setting [4]).

As for `C[C@@H](C1CC1)N1Cc2cc(-c3ccn4nc(N)c(C(=O)N[C@@H]5COC[C@H]5O)c4n3)cc(NS(C)(=O)=O)c2C1=O` [Example 88, 2-Amino-5-{2-[(1S)-1-cyclopropylethyl]-7-methanesulfonamido-1-oxo-2,3-dihydro-1H-isoindol-5-yl}-N-[(3R,4S)-4-hydroxyoxolan-3-yl]pyrazolo[1,5-a]pyrimidine-3-carboxamide], the 50% inhibitory concentration (IC50) was < 100 nM in assay [1] (Table 1, p120γ) and < 100 nM in assay [2] (setting [3]).

On to `C[C@@H](C1CC1)N1Cc2cc(-c3ccn4nc(N)c(C(=O)N[C@H]5CC[C@@](C)(O)CC5)c4n3)cc(OC(F)F)c2C1=O` [Example 160, 2-Amino-5-{2-[(1S)-1-cyclopropylethyl]-7-(difluoromethoxy)-1-oxo-2,3-dihydro-1H-isoindol-5-yl}-N-[cis-4-hydroxy-4-methylcyclohexyl]pyrazolo[1,5-a]pyrimidine-3-carboxamide], for which the half-inhibitory concentration (IC50) was < 100 nM in assay [1] (Table 1, p120γ) and < 100 nM in assay [2] (setting [3]).

`C[C@H](CO)NC(=O)c1c(N)nn2ccc(-c3cc(Cl)c4c(c3)CN([C@@H](C)C3CC3)C4=O)nc12` [Example 163, 2-Amino-5-{7-chloro-2-[(1S)-1-cyclopropylethyl]-1-oxo-2,3-dihydro-1H-isoindol-5-yl}-N-[(2R)-1-hydroxypropan-2-yl]pyrazolo[1,5-a]pyrimidine-3-carboxamide]: the IC50 in assay [1] (Table 1, p120γ) is < 100 nM; in assay [2] (setting [3]), < 100 nM.

In the case of `C[C@@H](C1CC1)N1Cc2cc(-c3ccn4nc(N)c(C(=O)Nc5ccccc5C(C)(C)O)c4n3)cc(OC(F)(F)F)c2C1=O` [Example 425], the IC50 in assay [1] (Table 6, p120γ) was < 100 nM; in assay [2] (Table 6, rhMCP-1 stimulated AKT pS473, read-out: cellular potency (PI3Kγ IC50)), > 1000 nM.

As to `Cc1cc(-c2ccn3nc(N)c(C(=O)N[C@@H](CO)C4CC4)c3n2)cc2c1C(=O)N(C(C)(C)CO)C2` [Example 312], the concentration for half-maximal inhibition (IC50) is < 100 nM in assay [1] (Table 2, p120γ) and 100 to 1000 nM in assay [2] (setting [4]).

For `C[C@H](CCO)NC(=O)c1c(N)nn2ccc(-c3cc4c(c(C(F)(F)F)c3)C(=O)N([C@@H](C)C3CC3)C4)nc12` [Example 57, 5-(3-{[(R)-3-Hydroxy-1-methylpropylamino]carbonyl}-2-amino-1,4,7a-triaza-5-indenyl)-2-[(S)-1-cyclopropylethyl]-7-(trifluoromethyl)-1-isoindolinone], the IC50 in assay [1] (Table 1, p120γ) is < 100 nM; in assay [2] (setting [3]) it was < 100 nM.

On to `CC[C@@H](C)N1Cc2cc(-c3ccn4nc(N)c(C(=O)NC5CC5)c4n3)cc(C)c2C1=O` [Example 306], for which the half-maximal inhibitory concentration (IC50) was < 100 nM in assay [1] (Table 2, p120γ) and 100 to 1000 nM in assay [2] (setting [4]).

Consider `Cc1cc(-c2ccn3nc(N)c(C(=O)NCC4(O)CC4)c3n2)cc2c1C(=O)N([C@@H](C)C1CC1)C2` [Example 188], for which the IC50 in assay [1] (Table 2, p120γ) was < 100 nM; in assay [2] (setting [4]) it was 100 to 1000 nM.
